Assay results published in patent US8252935B2, “Piperidinyl and piperazinyl modulators of γ-secretase” (Janssen Pharmaceutica N.V., priority 2007, dated 2012).

Biological target: γ-secretase (Homo sapiens, UniProt P49768)
Experiment: Screening for γ-secretase-modulating activity in SKNBE2 cells carrying APP 695 wild type (assay of Citron et al 1997)
Format: cell-based
Details: SKNBE2, @ 1 uM; SKNBE2 cells carrying the APP 695 wild type
Method: Screening was carried out using SKNBE2 cells carrying the APP 695—wild type, grown in DMEM/NUT-mix F12 (HAM) provided by Gibco (cat no. 31330-38) containing 5% Serum/Fe supplemented with 1% non-essential amino acids. Cells were grown to near confluency. The screening was performed using the assay as described in Citron et al (1997) Nature Medicine 3: 67.

Compound | inhibition at 1 µM
CC(C)CC(C(=O)O)c1cc(-c2ccc(C(F)(F)F)cc2)cc(N2CCN(c3ccc(F)c(F)c3)CC2)c1 (stereo not shown) [Example 79, 2-{5-[4-(3,4-Difluoro-phenyl)-piperazin-1-yl]-4′-trifluoromethyl-biphenyl-3-yl}-4-methyl-pentanoic acid] | 28%
COCCCC1CCCCN1c1cc(-c2ccc(C(F)(F)F)cc2)cc([C@@H](CC(C)C)C(=O)O)c1 (stereo partly drawn) [Example 60, (R)-2-{5-[2-(3-Methoxy-propyl)-piperidin-1-yl]-4′-trifluoromethyl-biphenyl-3-yl}-4-methyl-pentanoic acid] | 52%
CC(C)CCN1C(c2cc(-c3ccc(C(F)(F)F)cc3)cc(C(F)(CC(C)C)C(=O)O)c2)CCCC1C(F)(F)F (stereo not shown) [Example 16, 2-Fluoro-4-methyl-2-{5-[1-(3-methyl-butyl)-6-trifluoromethyl-piperidin-2-yl]-4′-trifluoromethyl-biphenyl-3-yl}-pentanoic acid] | 0%
CC(C)CCC(c1ccc(C(F)(F)F)cc1)N1CCC(c2cc(-c3ccc(C(F)(F)F)cc3)cc(C(CC(C)C)C(=O)O)c2)CC1 (stereo not shown) [Example 71, 4-Methyl-2-(5-{1-[4-methyl-1-(4-trifluoromethyl-phenyl)-pentyl]-piperidin-4-yl}-4′-trifluoromethyl-biphenyl-3-yl)-pentanoic acid] | 51%
CC(C)CC(C(=O)O)c1cc(-c2ccc(C(F)(F)F)cc2)cc(C2CCCN(Cc3ccc4nnn(C)c4c3)C2)c1 (stereo not shown) [Example 50, 4-Methyl-2-{5-[1-(3-methyl-3H-benzotriazol-5-ylmethyl)-piperidin-3-yl]-4′-trifluoromethyl-biphenyl-3-yl}-pentanoic acid] | 17%
CC(C)CC(C(=O)O)c1cc(-c2ccc(C(F)(F)F)cc2)cc(C2CCCN(Cc3ccc(Oc4ccc(F)cc4)cc3)C2)c1 (stereo not shown) [Example 48, 2-(5-{1-[4-(4-Fluoro-phenoxy)-benzyl]-piperidin-3-yl}-4′-trifluoromethyl-biphenyl-3-yl)-4-methyl-pentanoic acid] | 59%
CCC1CCCCN1c1cc(-c2ccc(C(F)(F)F)cc2)cc(C(CC(C)C)C(=O)O)c1 (stereo not shown) [Example 2, 2-[5-(2-Ethyl-piperidin-1-yl)-4′-trifluoromethyl-biphenyl-3-yl]-4-methyl-pentanoic acid] | 45%
CC(C)CCN1CCC(c2cc(-c3ccc(C(F)(F)F)cc3)cc(C(CC(C)C)C(=O)O)c2)CC1 (stereo not shown) [Example 76, 4-Methyl-2-{5-[1-(3-methyl-butyl)-piperidin-4-yl]-4′-trifluoromethyl-biphenyl-3-yl}-pentanoic acid] | 11%
CC(C)CC(C(=O)O)c1cc(-c2ccc(C(F)(F)F)cc2)cc(C2CCN(Cc3ccc(C(F)(F)F)cc3)CC2)c1 (stereo not shown) [Example 78, 4-Methyl-2-{4′-trifluoromethyl-5-[1-(4-trifluoromethyl-benzyl)-piperidin-4-yl]-biphenyl-3-yl}-pentanoic acid] | 35%
CC(C)CC(C(=O)O)c1cc(-c2ccc(C(F)(F)F)cc2)cc(C2CCCN(Cc3ccccc3)C2)c1 (stereo not shown) [Example 67, 2-[5-(1-Benzyl-piperidin-3-yl)-4′-trifluoromethyl-biphenyl-3-yl]-4-methyl-pentanoic acid] | 49%
Cc1ccccc1CC1CCCCN1c1cc(-c2ccc(C(F)(F)F)cc2)cc(C(CC(C)C)C(=O)O)c1 (stereo not shown) [Example 83, 4-Methyl-2-{5-[2-(2-methyl-benzyl)-piperidin-1-yl]-4′-trifluoromethyl-biphenyl-3-yl}-pentanoic acid] | 44%
CCN1CCCC(c2cc(-c3ccc(C(F)(F)F)cc3)cc(C(CC(C)C)C(=O)O)c2)C1 (stereo not shown) [Example 66, 2-[5-(1-Ethyl-piperidin-3-yl)-4′-trifluoromethyl-biphenyl-3-yl]-4-methyl-pentanoic acid] | 0%
CC(C)CC(C(=O)O)c1cc(-c2ccc(C(F)(F)F)cc2)cc(C2CCCN(Cc3ccc4ccccc4c3)C2)c1 (stereo not shown) [Example 46, 4-Methyl-2-[5-(1-naphthalen-2-ylmethyl-piperidin-3-yl)-4′-trifluoromethyl-biphenyl-3-yl]-pentanoic acid] | 57%
CC(C)CC(C(=O)O)c1cc(-c2ccc(C(F)(F)F)cc2)cc(C2CCCN(c3ccc(C(F)(F)F)cc3)C2)c1 (stereo not shown) [Example 59, 4-Methyl-2-{4′-trifluoromethyl-5-[1-(4-trifluoromethyl-phenyl)-piperidin-3-yl]-biphenyl-3-yl}-pentanoic acid] | 37%
CC(C)CC(C(=O)O)c1cc(-c2ccc(C(F)(F)F)cc2)cc(C2CCN(C3CCCCC3)CC2)c1 (stereo not shown) [Example 74, 2-[5-(1-Cyclohexyl-piperidin-4-yl)-4′-trifluoromethyl-biphenyl-3-yl]-4-methyl-pentanoic acid] | 4%
CC(C)CC(C(=O)O)c1cc(-c2ccc(C(F)(F)F)cc2)cc(C2CCCN(C(c3ccccc3)c3ccccc3)C2)c1 (stereo not shown) [Example 54, 2-[5-(1-Benzhydryl-piperidin-3-yl)-4′-trifluoromethyl-biphenyl-3-yl]-4-methyl-pentanoic acid] | 80%

Compound | inhibition at 1 µM
CC(C)CC(C(=O)O)c1cc(-c2ccc(C(F)(F)F)cc2)cc(C2CCCN(Cc3ccc(OC(F)(F)F)cc3)C2)c1 (stereo not shown) [Example 47, 4-Methyl-2-{5-[1-(4-trifluoromethoxy-benzyl)-piperidin-3-yl]-4′-trifluoromethyl-biphenyl-3-yl}-pentanoic acid] | 61%
CC(C)C[C@H](C(=O)O)c1cc(-c2ccc(C(F)(F)F)cc2)cc([C@H]2CCC[C@@H](C(F)(F)F)N2)c1 [Example 19, (S) 4-Methyl-2-[4′-trifluoromethyl-5-(6-trifluoromethyl-piperidin-2-yl)-biphenyl-3-yl]-pentanoic acid] | 48%
CC(C)CC(C(=O)O)c1cc(-c2ccc(C(F)(F)F)cc2)cc(C2CCCC(C)N2)c1 (stereo not shown) [Example 6, 4-Methyl-2-[5-(6-methyl-piperidin-2-yl)-4′-trifluoromethyl-biphenyl-3-yl]-pentanoic acid] | 0%
CC(C)CC(C(=O)O)c1cc(-c2ccc(C(F)(F)F)cc2)cc(N2CCN(c3cccc(C(F)(F)F)c3)CC2)c1 (stereo not shown) [Example 80, 4-Methyl-2-{4′-trifluoromethyl-5-[4-(3-trifluoromethyl-phenyl)-piperazin-1-yl]-biphenyl-3-yl}-pentanoic acid] | 35%
CC(C)CC(C(=O)O)c1cc(-c2ccc(C(F)(F)F)cc2)cc(N2CCN(c3ccc(C(F)(F)F)cc3)CC2)c1 (stereo not shown) [Example 81, 4-Methyl-2-{4′-trifluoromethyl-5-[4-(4-trifluoromethyl-phenyl)-piperazin-1-yl]-biphenyl-3-yl}-pentanoic acid] | 63%
CC(C)CC(C(=O)O)c1cc(-c2ccc(C(F)(F)F)cc2)cc(C2CCCN(Cc3ccc4nnsc4c3)C2)c1 (stereo not shown) [Example 49, 2-[5-(1-Benzo[1,2,3]thiadiazol-6-ylmethyl-piperidin-3-yl)-4′-trifluoromethyl-biphenyl-3-yl]-4-methyl-pentanoic acid] | 54%
CC(C)CC(C(=O)O)c1cc(-c2ccc(C(F)(F)F)cc2)cc(C2CCC(C(F)(F)F)CN2C)c1 (stereo not shown) [Example 13, 4-Methyl-2-[5-(1-methyl-5-trifluoromethyl-piperidin-2-yl)-4′-trifluoromethyl-biphenyl-3-yl]-pentanoic acid] | 30%
CC(C)CC(C(=O)O)c1cc(-c2ccc(C(F)(F)F)cc2)cc(N2CCCCC2C)c1 (stereo not shown) [Example 3, 4-Methyl-2-[5-(2-methyl-piperidin-1-yl)-4′-trifluoromethyl-biphenyl-3-yl]-pentanoic acid] | 23%
CC(C)C[C@H](C(=O)O)c1cc(-c2ccc(C(F)(F)F)cc2)cc([C@H]2CC[C@@H](C(F)(F)F)NC2)c1 (single isomer, unassigned) [Example 36, 4-Methyl-2-[4′-trifluoromethyl-5-(6-trifluoromethyl-piperidin-3-yl)-biphenyl-3-yl]-pentanoic acid] | 40%
CC(C)CC(C(=O)O)c1cc(-c2ccc(C(F)(F)F)cc2)cc(C2CCC(C(F)(F)F)N(Cc3ccncc3)C2)c1 (stereo not shown) [Example 25, 4-Methyl-2-[5-(1-pyridin-4-ylmethyl-6-trifluoromethyl-piperidin-3-yl)-4′-trifluoromethyl-biphenyl-3-yl]-pentanoic acid] | 23%
CN1C(c2cc(CC(=O)O)cc(-c3ccc(C(F)(F)F)cc3)c2)CCCC1C(F)(F)F (stereo not shown) [Example 11, [5-(1-Methyl-6-trifluoromethyl-piperidin-2-yl)-4′-trifluoromethyl-biphenyl-3-yl]-acetic acid] | 23%
CC(C)C[C@@H](C(=O)O)c1cc(-c2ccc(C(F)(F)F)cc2)cc([C@@H]2CC[C@H](C(F)(F)F)NC2)c1 (relative stereo) [Example 35, 4-Methyl-2-[4′-trifluoromethyl-5-(6-trifluoromethyl-piperidin-3-yl)-biphenyl-3-yl]-pentanoic acid] | 8%
CC(C)CC(C(=O)O)c1cc(-c2ccc(C(F)(F)F)cc2)cc(C2CCN(Cc3cc(F)cc(C(F)(F)F)c3)CC2)c1 (stereo not shown) [Example 70, 2-{5-[1-(3-Fluoro-5-trifluoromethyl-benzyl)-piperidin-4-yl]-4′-trifluoromethyl-biphenyl-3-yl}-4-methyl-pentanoic acid] | 47%
CCC(CC)N1CCCC(c2cc(-c3ccc(C(F)(F)F)cc3)cc(C(CC(C)C)C(=O)O)c2)C1 (stereo not shown) [Example 33, 2-{5-[1-(1-Ethyl-propyl)-piperidin-3-yl]-4′-trifluoromethyl-biphenyl-3-yl}-4-methyl-pentanoic acid] | 22%
CC(C)CC(C(=O)O)c1cc(-c2ccc(C(F)(F)F)cc2)cc(C2CCCN(S(=O)(=O)c3cccc4cnccc34)C2)c1 (stereo not shown) [Example 41, 2-{5-[1-(Isoquinoline-5-sulfonyl)-piperidin-3-yl]-4′-trifluoromethyl-biphenyl-3-yl}-4-methyl-pentanoic acid] | 70%
